This experiment deals with α-glucosidase. Nature of the experiment: in vitro α-glucosidase inhibition test (pNPG substrate, OD 405 nm); combination index by Chou-Talalay method with CompuSyn. Format: biochemical, Saccharomyces cerevisiae. The following applies: single compound. The procedure:
α-glucosidase (coming from Saccharomyces cerevisiae, Sigma);
an α-glucosidase solution with a concentration being 0.25 U/mL and a substrate p-nitrophenyl-α-D-glucopyranoside (pNPG) solution with a concentration being […] were prepared by using a PBS buffer solution (0.1 mol L−1 pH 6.8).
40 μL α-glucosidase solution was accurately removed, 100 μL of sample solution to be tested was added respectively, reacted for 10 min at 37° C., then 60 μL of substrate p-nitrophenyl-α-D-glucopyranoside (pNPG) solution was added, reacted for 15 min at 37° C., and an enzyme-linked analyzer measured at a wavelength of 405 nm.
First, daidzein, taxifolin, and 3-O-methyl quercetin were respectively prepared into 10 mg/mL mother solutions by using dimethyl sulfoxide (DMSO); and then a sample solution of the specific concentration of the daidzein, taxifolin, and 3-O-methyl quercetin and composition was prepared with PBS buffer solution.

On to `COc1ccc(-c2oc3cc(O)cc(O)c3c(=O)c2O)cc1` [Kaempferide], for which the Inhibition rate (5 μg/mL) turned out to be 30.8 ± 1.3%.

For the compound `Oc1cc(O)c2cc(O)c(-c3cc(O)c(O)c(O)c3)[o+]c2c1.[Cl-]` [Delphinidin], the Inhibition rate (1 μg/mL) stood at 50.2 ± 4.3%.

As to `O=c1c(O)c(-c2ccc(O)cc2O)oc2cc(O)cc(O)c12` [Morin], the Inhibition rate (1 μg/mL) worked out at 41.2 ± 2.7%.

For `O=c1c(O)c(-c2ccc(O)cc2)oc2cc(O)cc(O)c12` [Kaempferol], the Inhibition rate (2.5 μg/mL) came to 40.83 ± 2.3%.

For Vitexin, where the note is “10 μg/mL”, the Inhibition rate is recorded as 29.2 ± 1.4%.

For `O=C(CCc1ccc(O)cc1)c1c(O)cc(O)cc1O` [Phloretin], the Inhibition rate (8 μg/mL) amounted to 46.3 ± 2.7%.

Regarding `O=c1c(-c2ccc(O)cc2)coc2cc(O)ccc12` [Daidzein], the Inhibition rate runs as follows: (8 μg/mL) 44.5±2.5%; (10 μg/mL) 52.25±2.5%.

Take `O=C1c2c(O)cc(O)cc2O[C@H](c2ccc(O)c(O)c2)[C@H]1O` [Taxifolin]: the Inhibition rate is on record as 40.12±2.1% (25 μg/mL), 54.5±2.4% (30 μg/mL) and 75.21±3.4% (50 μg/mL).

Regarding `O=c1cc(-c2ccc(O)c(O)c2)oc2cc(O)cc(O)c12` [Luteolin], under “1 μg/mL”, the Inhibition rate was determined as 45.5 ± 2.7%.

As to `O=C(O[C@@H]1Cc2c(O)cc(O)cc2O[C@@H]1c1cc(O)c(O)c(O)c1)c1cc(O)c(O)c(O)c1` [Epigallocatechin gallate], under “0.06 μg/mL”, the Inhibition rate is on record as 42.5 ± 3.5%.

Consider `O=C(/C=C/c1ccc(O)cc1)c1ccc(O)cc1O` [Isoliquiritigenin], for which, under “4 μg/mL”, the Inhibition rate was 35.2 ± 2.5%.

On to `O=C1c2c(O)cc(O)cc2OC(c2ccc(O)cc2O)C1O` (stereo not shown) [Dihydromorin], for which the Inhibition rate (15 μg/mL) is given as 25.7 ± 4.7%.

For the compound `O=c1c(O)c(-c2cc(O)c(O)c(O)c2)oc2cc(O)cc(O)c12` [Myricetin], the Inhibition rate (1 μg/mL) amounted to 41.2 ± 1.5%.

With `O=c1cc(-c2ccccc2)oc2cc(O)c(O)c(O)c12` [Baicalein], the Inhibition rate (10 μg/mL) is 38.8 ± 3.3%.

As to Chrysin, for the setting “100 μg/mL”, the Inhibition rate amounted to 51.2 ± 5.5%.

As for `COc1c(-c2ccc(O)c(O)c2)oc2cc(O)cc(O)c2c1=O` [3-O-methyl quercetin, 3-O-Methyl Quercetin], the Inhibition rate by setting is: (2 μg/mL) 46.23±1.2%; (4 μg/mL) 53.52±3.2%; (6 μg/mL) 61.72±3.5%.

On to `COc1ccc(-c2coc3cc(O)ccc3c2=O)cc1` [Formononetin], for which, for the setting “20 μg/mL”, the Inhibition rate was found to be 60.07 ± 5.3%.

`COc1ccc(-c2coc3cc(O)cc(O)c3c2=O)cc1` [Biochanin A]: the Inhibition rate (0.7 μg/mL) stood at 38.5 ± 2.1%.

For `COc1cc(O)c2c(=O)cc(-c3ccc(O)cc3)oc2c1` [Genkwanin], the Inhibition rate (35 μg/mL) worked out at 70.12 ± 5.5%.

Regarding `O=c1c(O)c(-c2ccc(O)c(O)c2)oc2cc(O)ccc12` [Fisetin], the Inhibition rate (6 μg/mL) worked out at 46.5 ± 2.3%.

On to `COc1ccc(C2CC(=O)c3c(O)cc(O)cc3O2)cc1O` (stereo not shown) [Hesperetin], for which the Inhibition rate (30 μg/mL) came to 45.2 ± 3.2%.

Turning to `Oc1cc(O)c2cc(O)c(-c3ccc(O)c(O)c3)[o+]c2c1.[Cl-]` [Cyanidin], the Inhibition rate (0.7 μg/mL) is 47.5 ± 1.4%.

Turning to Herbacetin, the Inhibition rate (2.5 μg/mL) worked out at 35.2 ± 1.2%.

The values above are taken from patent US11753388B2, “Composition for inhibiting alpha-glucosidase and application thereof” (ZHENGZHOU FRUIT RESEARCH INSTITUTE, CHINESE ACADEMY OF …, priority 2021, dated 2023).
